target: T1, angiotensin II receptor (Oryctolagus cuniculus, UniProt P34976); test: inhibition of angiotensin II induced contraction of isolated rabbit aorta rings; type: cell-based, New Zealand White rabbit; settings: test compound incubated 20 minutes, 37° C., pH 7.4, read-out: IC50 (concentration being required to inhibit angiotensin II induced contraction by 50%)
T1 construct: The aorta was cut into 3~4 mm to form ring samples; from tissue; host or cells: isolated aorta rings of New Zealand White rabbits
T1 sequence (P34976 1-359): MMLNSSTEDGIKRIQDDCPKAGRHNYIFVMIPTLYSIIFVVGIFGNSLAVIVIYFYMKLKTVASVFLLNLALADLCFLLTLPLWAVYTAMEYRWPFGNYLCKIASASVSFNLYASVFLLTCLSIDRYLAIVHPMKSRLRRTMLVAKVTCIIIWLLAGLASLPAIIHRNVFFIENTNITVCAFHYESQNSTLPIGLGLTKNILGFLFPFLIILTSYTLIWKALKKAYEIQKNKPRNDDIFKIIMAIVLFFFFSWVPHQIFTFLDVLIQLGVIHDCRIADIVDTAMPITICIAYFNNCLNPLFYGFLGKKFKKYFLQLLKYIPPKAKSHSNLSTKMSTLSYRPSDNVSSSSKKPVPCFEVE
Protocol: The antagonistic activity of the representative compounds of the invention was evaluated using the methodology describe below.
From New Zealand White rabbits (male or female, 2~2.5 kg), aorta was isolated, and fat and connected tissue were removed therefrom. The aorta was cut into 3~4 mm to form ring samples. The aorta sample was suspended in 20 ml of organ bath (37° C.) containing modified Krebs-Henseleit solution saturated with 95% O2 /5% CO2 (pH 7.4).
The aorta preparation was exposed consecutively to 2 g of tensile strength for 90 minutes intermittently washing the sample with 30 minutes interval and then to 30 mM of KCl to observe contraction response. After washing more than three times, the aorta preparation was again allowed to contract three times for stabilization by adding Angiotensin II ([…]) thereto with 30 minutes interval. The third contraction response to Angiotensin II was considered as control.
10 minutes after the third contraction, the test compound was administered to the aorta preparation, which was incubated for 20 minutes.
Comparing angiotensin II contraction curve obtained from the above inhibition test with that of the control, IC50 (concentration being required to inhibit angiotensin II induced contraction by 50%) was determined for each test compound(Table 1).

Compound	IC50
CCc1nc(C)c(CC(=O)O)c(=O)n1Cc1ccc(-c2ccccc2-c2nnn[nH]2)cc1 [Compound 2, 2-ethyl-5-carboxymethyl-6-methyl-3-[[2'-(1H-tetrazol-5-yl)-biphenyl-4-yl]methyl]-pyrimidin-4-(3H)-one]	14.2 nM
CCCCc1nc(=O)c(CCC(=O)OCC)c(C)n1Cc1ccc(-c2ccccc2-c2nnn[nH]2)cc1 [Compound 24, 2-n-butyl-5-(2'-ethoxycarbonylethyl)-6-methyl-1-[[2'-(1H-tetrazol-5-yl)biphenyl-4-yl]methyl]-pyrimidin-4-(1H)-one]	169 nM
CCCCc1nc(C)c(CC(=O)N2CCCC(C(=O)OCC)C2)c(=O)n1Cc1ccc(-c2ccccc2-c2nn[nH]n2)cc1 (centres unmarked) [Compound 52, 2-n-butyl-5-(3'-ethoxycarbonylpiperidinocarbonylmethyl)-6-methyl-3-[[2'-(1H-tetrazol-5-yl)biphenyl-4-yl]methyl]-pyrimidin-4-(3H)-one]	3.56 nM
CCCCc1nc(C)c(CCC(=O)N2CCC(C(N)=O)CC2)c(=O)n1Cc1ccc(-c2ccccc2-c2nn[nH]n2)cc1 [Compound 68, 2-n-butyl-5-[2'-(4"-aminocarbonylpiperidino)carbonylethyl]-6-methyl-3-[[2'-(1H-tetrazol-5-yl)biphenyl-4-yl]methyl]-pyrimidin-4-(3H)-one]	2.29 nM
CCCCc1nc(C)c(CCC(=O)N2CCN(C(C)=O)CC2)c(=O)n1Cc1ccc(-c2ccccc2-c2nn[nH]n2)cc1 [Compound 81, 2-n-butyl-5-[2'-(4"-acetylpiperazino)carbonylethyl]-6-methyl-3-[[2'-(1H-tetrazol-5-yI)biphenyl-4-yl]methyl]-pyrimidin-4-(3H)-one]	9.87 nM
CCCCc1nc(C)c(CCC(=O)N2CCC[C@H]2C(N)=O)c(=O)n1Cc1ccc(-c2ccccc2-c2nn[nH]n2)cc1 [Compound 60, 2-n-butyl-5-[2'-((S)-2"-aminocarbonylpyrrolidino)carbonylethyl]-6-methyl-3-[[2'-(1H-tetrazol-5-yl)biphenyl-4-yl]methyl]-pyrimidin-4-(3H)-one]	2.88 nM
CCCCc1nc(C)c(CC(=O)N2CCN(C)CC2)c(=O)n1Cc1ccc(-c2ccccc2-c2nn[nH]n2)cc1 [Compound 76, 2-n-butyl-5-(4'-methylpiperazinocarbonylmethyl)-6-methyl-3-[[2'-(1H-tetrazol-5-yl)biphenyl-4-yl]methyl]-pyrimidin-4-(3H)-one]	3.59 nM
CCCCc1nc(=O)c(CC(=O)O)c(C)n1Cc1ccc(-c2ccccc2-c2nnn[nH]2)cc1 [Compound 20, 2-n-butyl-5-carboxymethyl-6-methyl-1-[[2'-(1H-tetrazol-5-yl)-biphenyl-4-yl]methyl]-pyrimidin-4-(1H)-one]	8.53 nM
CCCCc1nc(C)c(CCC(=O)N2CCCCCCC2)c(=O)n1Cc1ccc(-c2ccccc2-c2nn[nH]n2)cc1 [Compound 71, 2-n-butyl-5-(2'-heptamethyleneiminocarbonylethyl)-6-methyl-3-[[2'-(1 H-tetrazol-5-yl)biphenyl-4-yl]methyl]-pyrimidin-4-(3H)-one]	16.8 nM
CCCCc1nc(=O)c(CC(=O)N2CCCCC2)c(C)n1Cc1ccc(-c2ccccc2-c2nn[nH]n2)cc1 [Compound 46, 2-n-butyl-5-piperidinocarbonylmethyl-6-methyl-1-[[2'-(1H-tetrazol-5-yl)biphenyl-4-yl]methyl]-pyrimidin-4-(1H)-one]	405 nM
CCCCc1nc(C)c(CC(=O)N2CCCC(C)(C)C2)c(=O)n1Cc1ccc(-c2ccccc2-c2nn[nH]n2)cc1 [Compound 49, 2-n-butyl-5-(3',3'-dimethylpiperidinocarbonylmethyl)-6-methyl-3-[[2'-(1H-tetrazol-5-yl)biphenyl-4-yl]methyl]-pyrimidin-4-(3H)-one]	8.96 nM

More lines, now with the values ahead:

IC50	Compound
7.85 nM	CCCCc1nc(C)c(CCC(=O)N2CC=CC2)c(=O)n1Cc1ccc(-c2ccccc2-c2nn[nH]n2)cc1 [Compound 61, 2-n-butyl-5-[2'-(3"-pyrrolino)carbonylethyl]-6-methyl-3-[[2'-(1H-tetrazol-5-yl)biphenyl-4-yl]methyl]-pyrimidin-4-(3H)-one]
7.71 nM	CCCc1nc(=O)c(CC(=O)O)c(C)n1Cc1ccc(-c2ccccc2-c2nnn[nH]2)cc1 [Compound 11, 2-n-propyl-5-carboxymethyl-6-methyl-1-[[2'-(1H-tetrazol-5-yl)-biphenyl-4-yl]methyl]-pyrimidin-4-(1H)-one]
53 nM	CCCCc1nc(C)c(CCC(=O)N2CCN(c3ccccn3)CC2)c(=O)n1Cc1ccc(-c2ccccc2-c2nn[nH]n2)cc1 [Compound 82, 2-n-butyl-5-[2'-(4"-(2'"-pyridyl)piperazino)carbonylethyl]-6-methyl-3-[[2'-(1H-tetrazol-5-yl)biphenyl-4-yl]methyl]-pyrimidin-4-(3H)-one]
5.99 nM	CCCCc1nc(C)c(CC(=O)N2CCC(C(=O)OCC)CC2)c(=O)n1Cc1ccc(-c2ccccc2-c2nn[nH]n2)cc1 [Compound 51, 2-n-butyl-5-(4'-ethoxycarbonylpiperidinocarbonylmethyl)-6-methyl-3-[[2'-(1H-tetrazol-5-yl)biphenyl-4-yl]methyl]-pyrimidin-4-(3H)-one]
4.06 nM	CCCCc1nc(C)c(CCC(=O)N2CCSCC2)c(=O)n1Cc1ccc(-c2ccccc2-c2nn[nH]n2)cc1 [Compound 80, 2-n-butyl-5-(2'-thiomorpholinocarbonylethyl)-6-methyl-3-[[2'-(1H-tetrazol-5-yl)biphenyl-4-yl]methyl]-pyrimidin-4-(3H)-one]
2.74 nM	CCCCc1nc(C)c(CC(=O)N2CCCC2)c(=O)n1Cc1ccc(-c2ccccc2-c2nnn[nH]2)cc1 [Compound 40, 2-n-butyl-5-pyrrolidinocarbonylmethyl-6-methyl-3-[[2'-(1H-tetrazol-5-yl)biphenyl-4-yl]methyl]-pyrimidin-4-(3H)-one]
93.3 nM	CCCCc1nc(=O)c(CC(=O)OCC)c(C)n1Cc1ccc(-c2ccccc2-c2nnn[nH]2)cc1 [Compound 18, 2-n-butyl-5-ethoxycarbonylmethyl-6-methyl-1-[[2'-(1H-tetrazol-5-yl)biphenyl-4-yl]methyl]-pyrimidin-4-(1H)-one]
30.4 nM	CCCCc1nc(C)c(CCC(=O)N2CCCCC2C(=O)OCC)c(=O)n1Cc1ccc(-c2ccccc2-c2nn[nH]n2)cc1 (centres unmarked) [Compound 67, 2-n-butyl-5-[2'-(2"-ethoxycarbonylpiperidino)carbonylethyl]-6-methyl-3-[[2'-(1H-tetrazol-5-yl)biphenyl-4-yl]methyl]-pyrimidin-4-(3H)-one]
36.1 nM	CCCCc1nc(C)c(CC(=O)O)c(=O)n1Cc1ccc(-c2ccccc2C(=O)O)cc1 [Compound 39, 2-n-butyl-5-carboxymethyl-6-methyl-3-(2'-carboxybiphenyl-4-yl)methyl-pyrimidin-4-(3H)-one]
7.26 nM	CCCCc1nc(C)c(CCCC(=O)O)c(=O)n1Cc1ccc(-c2ccccc2-c2nnn[nH]2)cc1 [Compound 30, 2-n-butyl-5-(3'-carboxypropyl)-6-methyl-3-[[2'-(1H-tetrazol-5-yl)biphenyl-4-yl]methyl]-pyrimidin-4-(3H)-one]
3.33 nM	CCCCc1nc(C)c(CC(=O)N2CCCCCC2)c(=O)n1Cc1ccc(-c2ccccc2-c2nn[nH]n2)cc1 [Compound 56, 2-n-butyl-5-hexamethyleneiminocarbonylmethyl-6-methyl-3-[[2'-(1H-tetrazol-5-yl)biphenyl-4-yl]methyl]-pyrimidin-4-(3H)-one]
62 nM	CCCCc1nc(=O)c(CCC(=O)O)c(CC)n1Cc1ccc(-c2ccccc2-c2nn[nH]n2)cc1 [Compound 35, 2-n-butyl-5-(2'-carboxyethyl)-6-ethyl-1-[[2'-(1H-tetrazol-5-yl)-biphenyl-4-yl]methyl]-pyrimidin-4-(1H)-one]
92.3 nM	CCCCc1nc(C)c(CCC(=O)NCc2ccccc2)c(=O)n1Cc1ccc(-c2ccccc2-c2nnn[nH]2)cc1 [Compound 28, 2-n-butyl-5-(2'-benzylaminocarbonylethyl)-6-methyl-3-[[2'-(1H-tetrazol-5-yl)biphenyl-4-yl]methyl]-pyrimidin-4-(3H)-one]
5.86 nM	CCCCc1nc(C)c(CCC(=O)N2CCCC2)c(=O)n1Cc1ccc(-c2ccccc2-c2nn[nH]n2)cc1 [Compound 58, 2-n-butyl-5-(2'-pyrrolidinocarbonylethyl)-6-methyl-3-[[2'-(1H-tetrazol-5-yl)biphenyl-4-yl]methyl]-pyrimidin-4-(3H)-one]
42.8 nM	CCCCc1nc(=O)c(CCC(=O)O)c(C)n1Cc1ccc(-c2ccccc2-c2nnn[nH]2)cc1 [Compound 26, 2-n-butyl-5-(2'-carboxyethyl)-6-methyl-1-[[2'-(1H-tetrazol-5-yl)-biphenyl-4-yl]methyl]-pyrimidin-4-(1H)-one]

From patent US5869476A, “Pyrimidinone derivatives” (Boryung Pharmaceutical Co., Ltd., priority 1994, dated 1999)
